Source: ChEMBL document CHEMBL1143459, “High affinity ligands for the alpha7 nicotinic receptor that show no cross-reactivity with the 5-HT3 receptor” (Bioorg Med Chem Lett, 2005)

Tests used:
[1] = molecular target: Neuronal acetylcholine receptor subunit alpha-7 (Homo sapiens, UniProt P36544); assay: Binding affinity towards human nicotinic acetylcholine receptor alpha 7 expressed in GH4C1 cell using [3H]methyllycaconitine; assay type: cell-based, GH4-C1
[2] = molecular target: Serotonin 3 (5-HT3) receptor; assay: Binding affinity towards human 5-hydroxytryptamine 3 serotonin membrane receptor using [3H]GR-65630 at 10 uM
[3] = molecular target: Serotonin 3 (5-HT3) receptor; assay: Binding affinity for human 5-hydroxytryptamine 3 serotonin membrane receptor using [3H]GR-65630

Sequence of Neuronal acetylcholine receptor subunit alpha-7 (P36544 whole entry): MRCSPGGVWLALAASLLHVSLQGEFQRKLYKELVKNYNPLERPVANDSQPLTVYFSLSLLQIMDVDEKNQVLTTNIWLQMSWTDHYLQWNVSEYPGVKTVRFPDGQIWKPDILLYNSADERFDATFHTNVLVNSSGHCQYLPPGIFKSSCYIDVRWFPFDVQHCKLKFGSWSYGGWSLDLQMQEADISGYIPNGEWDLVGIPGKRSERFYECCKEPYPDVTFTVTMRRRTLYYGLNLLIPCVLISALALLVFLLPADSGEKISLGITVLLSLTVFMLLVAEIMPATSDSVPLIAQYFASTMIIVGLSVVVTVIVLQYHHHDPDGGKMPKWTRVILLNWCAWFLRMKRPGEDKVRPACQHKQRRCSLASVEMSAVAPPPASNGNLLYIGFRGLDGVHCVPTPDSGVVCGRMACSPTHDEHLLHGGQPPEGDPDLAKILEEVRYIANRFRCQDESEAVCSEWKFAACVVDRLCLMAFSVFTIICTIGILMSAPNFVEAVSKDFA

SMILES	Ki [1]	inhibition [2]	Ki [3]
O=C(NC1CN2CCC1CC2)c1ccc(-c2ccccc2Cl)s1 (stereo not given)	525 nM	45%	
O=C(N[C@H]1CN2CCC1CC2)c1ccc(-c2ccccn2)s1	1.3 nM	15.5%	
COc1ccccc1-c1ccc(C(=O)NC2CN3CCC2CC3)s1 (stereo not given)	268 nM	27%	
O=C(NC1CN2CCC1CC2)c1ccc(-c2ccccn2)s1 (stereo not given)	6.9 nM	28%	
O=C(NC1CN2CCC1CC2)c1cc(-c2ccccc2)sn1 (stereo not given)	4.1 nM	28%	
O=C(N[C@H]1CN2CCC1CC2)c1ccc(-c2ccccc2)s1 (racemic)	3.4 nM		2020 nM
O=C(NC1CN2CCC1CC2)c1csc(-c2ccccc2)c1 (stereo not given)	16.7 nM		409 nM
CC(=O)O.O=C(N[C@H]1CN2CCC1CC2)c1ccc(-c2ccccc2)s1	1.8 nM	24%	
O=C1NC[C@]2(CN3CCC2CC3)O1		2.5%	
c1cncc(CNc2cnc3c(c2)C[C@@]2(CN4CCC2CC4)O3)c1			2220 nM
c1ccc(-c2cnc3c(c2)C[C@@]2(CN4CCC2CC4)O3)cc1	3.1 nM		73 nM
O=C(N[C@@H]1CN2CCC1CC2)c1ccc(-c2ccccc2)s1	26.9 nM		1550 nM
CCN1C[C@]2(COC(=O)c3ccccc3N3C(=O)C[C@H](C)C3=O)CC[C@H](OC)[C@@]34[C@@H]5C[C@H]6[C@H](OC)[C@@H]5[C@](O)(C[C@@H]6OC)[C@](O)([C@@H](OC)[C@H]23)[C@@H]14 [METHYLLYCACONITINE]	7.3 nM	16.5%	
O=C(NC1CN2CCC1CC2)c1ccc(-c2cccs2)s1 (stereo not given)	1.1 nM		1040 nM
O=C(NC1CN2CCC1CC2)c1ccc(-c2ccccc2)s1 (stereo not given)	3.4 nM		2020 nM
O=C(NC1CN2CCC1CC2)c1csc(-c2ccccc2)n1 (stereo not given)	121 nM		665 nM
